In patent US10538561B2, “Peptide for treating inflammatory diseases” (priority 2015, dated 2020):
Marks after values point to notes of the source that are not given here.

How the values were obtained:
TSLP = test: LPS+PMA stimulated TSLP secretion in HaCaT; format: cell-based, Human; settings: for TSLP % decrease with respect to LPS + PMA / TSLP Conc (pg/ml): HaCaT + LPS + PMA, 24 h
Experimental: (§1) Effect on pro-inflammatory cytokines against TNF-α/LPS+PMA stimulation: TNF-α; IFN-γ; TARC; TSLP; IL-6; IL-8: Cell lines: Human keratinocytes (HaCaT); test item (TI); IS181; experimental steps: pre-treatment of cells with TI for 2 hours; stimulation with TNF-α: 20 ng/ml; stimulation with LPS+PMA-10 μg/ml LPS+40 ng/ml PMA; supernatant collection for cytokine analysis after 24 hours; concentration range: 0.1 μg/ml-100 μg/ml (duplicate wells); cytokines: TNF-α; IFN-γ; TARC; TSLP; IL-6; IL-8. Method of estimating cytokines: ELISA; positive control: dexamethasone.
(§2) Cell line: HaCaT (Human Keratinocytes); TI Treatment regimen: Pretreatment for 2 h; TI Concentration range: 0.1 μg/ml-100 μg/ml (duplicate wells); TNF-α stimulation: 20 ng/ml; LPS+PMA stimulation: 10 μg/ml LPS+40 ng/ml PMA; Time point for supernatants collection: 24 h; Method of estimation: ELISA; Positive control: Dexamethasone

[1] = Cell viability of THP-1 (MTT); format: cell-based, Human; settings: human, THP-1 monocytic cells, THP-1, 24 h, read-out: Cell viability (wrt Untreated)
Experimental: (§3) Cell lines: Human monocytic cell line (THP-1); test item: IS181: treatment regimen; single addition—24 hours; concentration range: 10 μg/ml-5000 μg/ml. A) Identification of non-cytotoxic concentrations: THP-1 cells were treated with IS181 for 24 hours; effect on cell viability was assessed by MTT assay; concentrations leading to >75% cell viability were selected for IL-23 assay. […] Positive control: curcumin. […] Since supernatants corresponding to 5 concentrations were to be tested for […], we also tested 1 mg/ml.

[2] = tested on: Human monocytic cell line (THP-1); test: Cell viability of THP-1 (MTT); format: cell-based
Experimental: as §3

TNF-α = test: LPS stimulated TNF-α secretion in RAW264.7; format: cell-based, Mouse; settings: for TNF-α % decrease with respect to LPS / TNF-α Conc (pg/ml): RAW264.7 + LPS, 24 h
Experimental: Effect on pro-inflammatory cytokines against LPS stimulation: TNF-α; IL-6; IL-1-β: Cell lines: Murine macrophage cell line (RAW264.7); test item: IS181; experimental steps: pretreatment of cells with TI for 2 hours; stimulation with LPS (100 ng/ml) for 24 hours; supernatant collection for cytokine analysis; concentration range: o.1 μg/ml-500 μg/ml (duplicate wells); Cytokines: TNF-α; IL-6; IL-1-β; Method of estimating cytokines: ELISA; positive control: dexamethasone.
Cell line: RAW264.7 (Mouse macrophages); TI treatment regimen: Pretreatment for 2 h; TI Concentration range: 0.1 μg/ml-500 μg/ml (duplicate wells); LPS stimulation: 100 ng/ml; Time point for supernatants collection: 24 h; Method of estimation: ELISA; Positive control: Dexamethasone

FLT1 (VEGFR1) = FLT1 (VEGFR1) (Homo sapiens, UniProt P17948); test: Biochemical kinase assay FLT1; settings: cell free
Sequence of FLT1 (VEGFR1) (P17948 27-1338): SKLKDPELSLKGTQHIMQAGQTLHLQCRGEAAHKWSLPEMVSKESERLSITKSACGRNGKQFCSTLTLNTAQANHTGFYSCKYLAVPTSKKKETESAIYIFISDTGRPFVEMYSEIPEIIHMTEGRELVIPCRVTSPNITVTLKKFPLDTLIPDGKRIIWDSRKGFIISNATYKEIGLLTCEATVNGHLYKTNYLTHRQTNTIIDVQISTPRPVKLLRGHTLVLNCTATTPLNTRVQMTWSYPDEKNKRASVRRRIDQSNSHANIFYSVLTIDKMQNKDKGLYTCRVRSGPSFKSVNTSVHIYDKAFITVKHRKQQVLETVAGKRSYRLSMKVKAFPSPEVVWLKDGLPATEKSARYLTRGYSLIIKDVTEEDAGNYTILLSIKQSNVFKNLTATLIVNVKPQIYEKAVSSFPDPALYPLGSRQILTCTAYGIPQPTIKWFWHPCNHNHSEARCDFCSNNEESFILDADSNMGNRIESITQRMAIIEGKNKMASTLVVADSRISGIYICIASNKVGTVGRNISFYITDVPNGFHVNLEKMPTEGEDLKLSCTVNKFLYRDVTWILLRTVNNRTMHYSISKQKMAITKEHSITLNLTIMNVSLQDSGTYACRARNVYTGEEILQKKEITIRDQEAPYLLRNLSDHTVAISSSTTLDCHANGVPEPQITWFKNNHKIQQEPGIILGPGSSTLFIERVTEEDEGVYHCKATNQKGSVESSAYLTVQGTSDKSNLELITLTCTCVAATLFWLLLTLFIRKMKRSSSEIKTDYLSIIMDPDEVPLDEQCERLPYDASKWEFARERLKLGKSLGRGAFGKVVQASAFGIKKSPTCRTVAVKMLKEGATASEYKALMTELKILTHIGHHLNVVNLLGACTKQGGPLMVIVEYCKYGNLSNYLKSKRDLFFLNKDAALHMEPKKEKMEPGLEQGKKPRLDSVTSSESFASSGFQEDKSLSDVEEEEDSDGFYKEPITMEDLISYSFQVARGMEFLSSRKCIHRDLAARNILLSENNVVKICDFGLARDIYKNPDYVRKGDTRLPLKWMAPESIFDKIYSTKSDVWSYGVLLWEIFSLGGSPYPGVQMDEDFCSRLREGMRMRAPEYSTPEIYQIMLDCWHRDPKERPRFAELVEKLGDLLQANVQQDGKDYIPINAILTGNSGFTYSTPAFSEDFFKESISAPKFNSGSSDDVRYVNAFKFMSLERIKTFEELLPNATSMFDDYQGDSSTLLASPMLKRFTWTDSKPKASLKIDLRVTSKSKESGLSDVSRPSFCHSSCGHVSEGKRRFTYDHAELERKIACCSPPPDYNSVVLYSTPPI
Experimental: Test system: cell free assays; test items: IS181; concentrations tested: 1 ng/ml-5000 μg/ml; Kinases: a) Cell free assays: EGFR (ErbB1); FLT1 (VEGFR1); JAK1; JAK3 MAP2K1 (MEK1); PDGFRA (PDGFR alpha); PRKCA (PKC alpha); b) cell based assay: JAK-STAT.

IFN-γ = test: TNF-α stimulated IFN-γ secretion in HaCaT; format: cell-based, Human; parameters: IFN-γ Conc (μ/ml): unit not given here; settings: for IFN-γ % decrease with respect to TNF-α / IFN-γ Conc (μ/ml): HaCaT + TNF-α, 24 h
Experimental: as §1, §2

[3] = Maximum feasible concentration and formulation stability; format: physicochemical
Experimental: The solution stability of peptide IS 181 was performed in four different diluents at three different temperatures for 24 hours. Four different pre-formulations of concentration 10 mg/ml were prepared and formulation assay was performed at initial and […] at room temperature.

[4] = 10% v/v Propylene glycol in 0.9% NaCl (for IM& SC)

H-WVQRVVEKFLK-OH [IS181, H-Trp-Val-Gln-Arg-Val-Val-Glu-Lys-Phe-Leu-Lys-OH]
secretion of TSLP inhibited as compared to LPS+PMA stimulated cells (TSLP; 0.1 μg/ml-100 μg/ml): 46.4%-53.6%
TSLP inhibition (TSLP; HaCaT): good extent of TSLP and IL-8 inhibition
TSLP % decrease with respect to LPS + PMA (TSLP; 0.1 μg/ml): 49.4%
TSLP Conc (pg/ml) (TSLP; 0.1 μg/ml): 62.9*** pg/ml
TSLP % decrease with respect to LPS + PMA (TSLP; 1 μg/ml): 47.9%
TSLP Conc (pg/ml) (TSLP; 1 μg/ml): 64.7*** pg/ml
TSLP % decrease with respect to LPS + PMA (TSLP; 5 μg/ml): 46.4%
TSLP Conc (pg/ml) (TSLP; 5 μg/ml): 66.6*** pg/ml
TSLP % decrease with respect to LPS + PMA (TSLP; 10 μg/ml): 53.6%
TSLP Conc (pg/ml) (TSLP; 10 μg/ml): 57.6*** pg/ml
TSLP % decrease with respect to LPS + PMA (TSLP; 100 μg/ml): 49.8%
TSLP Conc (pg/ml) (TSLP; 100 μg/ml): 62.4*** pg/ml
viability at 24 h, 10 μg/ml ([1]; 10 μg/ml): 81.2%
viability at 24 h, 50 μg/ml ([1]; 50 μg/ml): 84.2%
viability at 24 h, 100 μg/ml ([1]; 100 μg/ml): 90.4%
viability at 24 h, 500 μg/ml ([1]; 500 μg/ml): 88.5%
viability at 24 h, 1 mg/ml ([1]; 1 mg/ml): 61.3%
viability at 24 h, 5 mg/ml ([1]; 5 mg/ml): 15%
cytotoxicity ([2]; THP-1, 10 μg/ml-500 μg/ml): 25%
cytotoxicity ([2]; THP-1, 1 mg/ml): 38.7%
cytotoxicity ([2]; THP-1, 5 mg/ml): 85%
TNF-α inhibition as compared to LPS stimulated levels (TNF-α; RAW264.7): good extent of TNF-α and IL-6 inhibition
TNF-α % decrease with respect to LPS (TNF-α; 0.1 μ/ml): 58.8%
TNF-α Conc (pg/ml) (TNF-α; 0.1 μ/ml): 1190.3*** pg/ml
TNF-α % decrease with respect to LPS (TNF-α; 1 μ/ml): 32.1%
TNF-α Conc (pg/ml) (TNF-α; 1 μ/ml): 1960.5*** pg/ml
TNF-α % decrease with respect to LPS (TNF-α; 5 μ/ml): 34.0%
TNF-α Conc (pg/ml) (TNF-α; 5 μ/ml): 1906.1*** pg/ml
TNF-α % decrease with respect to LPS (TNF-α; 10 μ/ml): 60.2%
TNF-α Conc (pg/ml) (TNF-α; 10 μ/ml): 1149.0*** pg/ml
TNF-α % decrease with respect to LPS (TNF-α; 100 μ/ml): 17.6%
TNF-α Conc (pg/ml) (TNF-α; 100 μ/ml): 2379.2* pg/ml
TNF-α % decrease with respect to LPS (TNF-α; 500 μ/ml): 38.4%
TNF-α Conc (pg/ml) (TNF-α; 500 μ/ml): 1779.9*** pg/ml
TNF-α secretion downregulated vs LPS stimulated levels (TNF-α; RAW264.7, 0.1 μg/ml-500 μg/ml): 17.6%-60.2%
inhibition at 50 µg/mL (FLT1 (VEGFR1); 50 μg/ml): 44%
inhibition at 100 µg/mL (FLT1 (VEGFR1); 100 μg/ml): -16%
inhibition at 250 µg/mL (FLT1 (VEGFR1); 250 μg/ml): -28%
inhibition at 500 µg/mL (FLT1 (VEGFR1); 500 μg/ml): -44%
inhibition at 1000 µg/mL (FLT1 (VEGFR1); 1000 μg/ml): -110%
IFN-γ secretion downregulated as compared to TNF-α stimulated cells (IFN-γ; 0.1 μg/ml-100): 27.1%-40.1%
IFN-γ inhibition (IFN-γ; HaCaT): good extent of IFN-γ and TARC inhibition
IFN-γ % decrease with respect to TNF-α (IFN-γ; 0.1 μg/ml): 35.6%
IFN-γ Conc (μ/ml) (IFN-γ; 0.1 μg/ml): 30.7***
IFN-γ % decrease with respect to TNF-α (IFN-γ; 1 μg/ml): 36.7%
IFN-γ Conc (μ/ml) (IFN-γ; 1 μg/ml): 30.1***
IFN-γ % decrease with respect to TNF-α (IFN-γ; 5 μg/ml): 40.1%
IFN-γ Conc (μ/ml) (IFN-γ; 5 μg/ml): 28.6***
IFN-γ % decrease with respect to TNF-α (IFN-γ; 10 μg/ml): 27.1%
IFN-γ Conc (μ/ml) (IFN-γ; 10 μg/ml): 34.7***
IFN-γ % decrease with respect to TNF-α (IFN-γ; 100 μg/ml): 32.0%
IFN-γ Conc (μ/ml) (IFN-γ; 100 μg/ml): 32.4***
MFC ([3]; 0.9% NaCl (for IV)): >25.0 mg/mL
Stability of formulation at RT ([3]; 0.9% NaCl (for IV)): Up to 24 hrs
MFC [3, 4]: >25.0 mg/mL
Stability of formulation at RT [3, 4]: Up to 24 hrs
